We go through three molecules from patent publication US20240293304A1, “SULFONATE-FUNCTIONALIZED ALKYL POLYGLUCOSIDES AS SULFATE-FREE SURFACTANTS FOR TOOTHPASTE AND MOUTHWASH” (Colonial Chemical, Inc., priority 2021, published 2024).

For data set [1], the system named is gingival tissues (MatTek EpiGingival). The data set can be described thus: MatTek EpiGingival in vitro gingival irritation potential. Type of data set: cell-based. As to conditions: 2% SLS. The text has this: Suga®Nate 160NC has been tested for its oral and gingival irritation potential in vitro (MatTek EpiOral™ & EpiGingival™). […] Taken together, the results reveal that Suga®Nate 160NC, even as a neat product, is less irritating to oral and gingival tissues than 2% SLS.

In data set [2] the test system is In vitro epidermal keratinocytes. Type of data set: cell-based.

A value given as a limit tells only on which side of the number the result lay.

As to `CCCCCCCCCCCCOS(=O)(=O)[O-].[Na+]` [SLS], in data set [1], the ET-50 worked out at 418.2 min and the gingival irritation entry is “resulted in gingival irritation”.
With “sodium hydroxypropylsulfonate laurylglucoside crosspolymer [Poly Suga®Nate 160P NC]”, in data set [2], the ET-50 is at least 256 min and the eye irritation classification result is recorded as “non-irritating”.
As for “sorbitan oleate decylglucoside crosspolymer [Poly Suga®Mulse D9]”, the eye irritation classification result in data set [2] was “non-irritating”.
